53 compounds from patent publication US8987249B2, “Substituted 2-Aza-bicyclo[2.2.1]heptane-3-carboxylic acid (benzyl-cyano-methyl)-amides inhibitors of Cathepsin C” (Boehringer Ingelheim International GmbH, priority 2013, dated 2015) can be followed below.

Molecules are shown by their SMILES.

For the test, the target named is recombinant human DPPI (Cathepsin C) (Homo sapiens (Human), UniProt P53634). Put plainly: Inhibition of human DPPI (Cathepsin C). The class given is biochemical. The following applies: substrate Gly-Arg-AMC. The method, then: Inhibition of Human DPPI (Cathepsin C)
Sequence of recombinant human DPPI (Cathepsin C) (P53634 231-394): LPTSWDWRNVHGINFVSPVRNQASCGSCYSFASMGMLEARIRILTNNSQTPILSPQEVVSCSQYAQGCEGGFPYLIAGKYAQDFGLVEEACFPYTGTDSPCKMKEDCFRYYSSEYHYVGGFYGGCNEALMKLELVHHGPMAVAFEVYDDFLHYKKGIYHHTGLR
Sequence of recombinant human DPPI (Cathepsin C) (P53634 395-463): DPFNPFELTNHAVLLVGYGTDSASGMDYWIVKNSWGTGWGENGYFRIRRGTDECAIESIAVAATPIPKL
Sequence of recombinant human DPPI (Cathepsin C) (P53634 25-134): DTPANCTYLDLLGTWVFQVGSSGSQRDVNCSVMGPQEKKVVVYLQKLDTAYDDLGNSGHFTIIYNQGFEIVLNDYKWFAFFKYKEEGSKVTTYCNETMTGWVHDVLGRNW
Bovine serum albumin (BSA; Prod. No. A3059) and Dithiothreitol (DTT; Prod. No D0632) were from Sigma. […] The DPP1 inhibitor Gly-Phe-DMK was purchased from MP Biomedicals (Prod.-No. 03DK00625). The recombinant human DPPI was purchased from Prozymex. All other materials were of highest grade commercially available.
The following buffers were used: MES buffer: 25 mM MES, 50 mM NaCl, 5 mM DTT, adjusted to pH 6.0, containing 0.1% BSA; TAGZyme Buffer: 20 mM NaH2PO4, 150 mM NaCl adjusted to pH 6.0 with HCl
Then, 5 μL of substrate in MES buffer (final concentration 50 μM) were added. The microtiter plates were then incubated at room temperature for 30 min. Then, the reaction was stopped by adding 10 μL of Gly-Phe-DMK in MES-buffer (final concentration 1 μM).
The analysis of the data was performed by calculating the percentage of fluorescence in the presence of test compound in comparison to the fluorescence of the vehicle control after subtracting the background fluorescence using the following formula: (RFU(sample)−RFU(background))*100/(RFU(control)−RFU(background))
Data from these calculations were used to generate IC50 values for inhibition of DPPI, respectively.
The IC50 is the concentration needed to halve the response being measured. Regarding `CN(C)C(=O)c1ccc(-c2ccc(C[C@@H](C#N)NC(=O)[C@H]3N[C@@H]4CC[C@H]3C4)c(F)c2)cc1` [Example 211], the IC50 came out at 61.1 nM.

For `CC(C)N1CCN(C(=O)c2cc(-c3ccc(C[C@@H](C#N)NC(=O)[C@H]4N[C@@H]5CC[C@H]4C5)c(F)c3)cs2)CC1` [Example 227], the IC50 worked out at 1 nM. With `N#CC(Cc1ccc2cn[nH]c2c1)NC(=O)[C@H]1N[C@@H]2CC[C@H]1C2` (some centres unmarked) [Example 127], the 50% inhibitory concentration (IC50) came out at 860 nM. The same measure for `COCCN1CCC(c2ccc(C[C@@H](C#N)NC(=O)[C@H]3N[C@@H]4CC[C@H]3C4)c(F)c2)C1` (some centres unmarked) [Example 350]: 38.6 nM; for `N#C[C@H](Cc1ccc(-c2cnn(S(=O)(=O)c3ccccc3)c2)cc1F)NC(=O)[C@H]1N[C@@H]2CC[C@H]1C2` [Example 243]: 4.8 nM; for `N#C[C@H](Cc1ccc(N2CCN(C3CC3)CC2)cc1F)NC(=O)[C@H]1N[C@@H]2CC[C@H]1C2` [Example 187]: 9.8 nM. The result for `N#CC(Cc1ccc2c(c1)c(=O)[nH]c1ccc(Cl)cc12)NC(=O)[C@H]1N[C@@H]2CC[C@H]1C2` (some centres unmarked) [Example 304] reads 6 nM; that for `Cn1ncc2cc(-c3ccc(C[C@@H](C#N)NC(=O)[C@H]4N[C@H]5C[C@@H]4[C@@H]4C[C@@H]45)c(F)c3)ccc21` [Example 137], 59.7 nM. The same measure for `CN1CCN(c2ccc(F)c(C[C@@H](C#N)NC(=O)[C@H]3N[C@@H]4CC[C@H]3C4)c2)CC1` [Example 318]: 212 nM; for `N#Cc1ccc(-c2ccc(C[C@@H](C#N)NC(=O)[C@H]3N[C@H]4C[C@@H]3[C@@H]3C[C@@H]34)c(F)c2)cn1` [Example 142]: 63.1 nM. Consider `Cc1cnn(C)c1-c1ccc(C[C@@H](C#N)NC(=O)[C@H]2N[C@@H]3CC[C@H]2C3)c(F)c1` [Example 126], for which the 50% inhibitory concentration (IC50) worked out at 275 nM. The same measure for `COC(=O)c1ccc2[nH]c(=O)c3cc(CC(C#N)NC(=O)[C@H]4N[C@@H]5CC[C@H]4C5)ccc3c2c1` (some centres unmarked) [Example 299]: 3.2 nM; for `N#C[C@H](Cc1ccc(-c2cnc3cccnn23)cc1F)NC(=O)[C@H]1N[C@@H]2CC[C@H]1C2` [Example 174]: 5.6 nM; for `N#C[C@H](Cc1ccc(-c2ccc(C(=O)N3CCOCC3)cc2)cc1F)NC(=O)[C@H]1N[C@@H]2CC[C@H]1C2` [Example 202]: 22.9 nM. The same measure for `N#Cc1ccc2c(c1)[nH]c(=O)c1cc(CC(C#N)NC(=O)[C@H]3N[C@@H]4CC[C@H]3C4)ccc12` (some centres unmarked) [Example 309]: 9.1 nM; for `N#C[C@H](Cc1ccc(-c2ccc(S(=O)(=O)N3CCCCC3)cc2)cc1F)NC(=O)[C@H]1N[C@@H]2CC[C@H]1C2` [Example 177]: 7.4 nM.

Consider `CN1C(=O)Cc2ccc(-c3ccc(CC(C#N)NC(=O)[C@H]4N[C@@H]5CC[C@H]4C5)c(OCc4ccccc4)c3)cc21` (some centres unmarked) [Example 122], for which the IC50 was found to be 182 nM.

Consider `N#C[C@H](Cc1ccc(N2CCC3COCC3C2)cc1F)NC(=O)[C@H]1N[C@@H]2CC[C@H]1C2` (some centres unmarked) [Example 352], for which the IC50 amounted to 17.3 nM. As to `COc1ccc2[nH]c(=O)c3cc(CC(C#N)NC(=O)[C@H]4N[C@@H]5CC[C@H]4C5)ccc3c2c1` (some centres unmarked) [Example 312], the IC50 was 11 nM. In the case of `CN1CCN(S(=O)(=O)c2cccc(-c3ccc(C[C@@H](C#N)NC(=O)[C@H]4N[C@@H]5CC[C@H]4C5)c(F)c3)c2)CC1` [Example 224], the IC50 was 1.2 nM. The result for `N#CC(Cc1ccc2c(c1)CCc1ccccc1-2)NC(=O)[C@H]1N[C@@H]2CC[C@H]1C2` (some centres unmarked) [Example 209] reads 45.8 nM; that for `COC(=O)c1cccc2c1[nH]c(=O)c1cc(CC(C#N)NC(=O)[C@H]3N[C@@H]4CC[C@H]3C4)ccc12` (some centres unmarked) [Example 311], 9.9 nM. The same measure for `N#CC(Cc1ccc2c(c1)[nH]c(=O)c1cc(F)ccc12)NC(=O)[C@H]1N[C@@H]2CC[C@H]1C2` (some centres unmarked) [Example 207]: 29.1 nM. The same measure for `N#CC(Cc1ccc2[nH]c3ccccc3c2c1)NC(=O)[C@H]1N[C@@H]2CC[C@H]1C2` (some centres unmarked) [Example 213]: 619 nM; for `N#C[C@H](Cc1ccc(C2CCCN(C3CCOC3)C2)cc1F)NC(=O)[C@H]1N[C@@H]2CC[C@H]1C2` (some centres unmarked) [Example 338]: 44.3 nM; for `Cc1cn(C)c(-c2ccc(C[C@@H](C#N)NC(=O)[C@H]3N[C@@H]4CC[C@H]3C4)c(F)c2)n1` [Example 208]: 29.8 nM. As for `N#CC(Cc1cccc2[nH]c(=O)c3cc(F)ccc3c12)NC(=O)[C@H]1N[C@@H]2CC[C@H]1C2` (some centres unmarked) [Example 215], the IC50 turned out to be 882 nM. In the case of `COC(=O)c1cc(C)c(-c2ccc(C[C@@H](C#N)NC(=O)[C@H]3N[C@@H]4CC[C@H]3C4)c(F)c2)s1` [Example 198], the IC50 was 15.8 nM. For the compound `CCc1cc(-c2ccc(C[C@@H](C#N)NC(=O)[C@H]3N[C@@H]4CC[C@H]3C4)c(F)c2)nn1CC(C)C` [Example 273], the IC50 was 28.9 nM. For `CN(C)CCn1ccc(-c2ccc(C[C@@H](C#N)NC(=O)[C@H]3N[C@@H]4CC[C@H]3C4)c(F)c2)cc1=O` [Example 256], the IC50 was 26.3 nM.

`N#C[C@H](Cc1ccc(-c2cnn3cccnc23)cc1F)NC(=O)[C@H]1N[C@@H]2CC[C@H]1C2` [Example 168]: the IC50 amounted to 3.7 nM.

As for `N#C[C@H](Cc1ccc(-c2csc(C(=O)N3CCCC3)c2)cc1F)NC(=O)[C@H]1N[C@@H]2CC[C@H]1C2` [Example 165], the IC50 came to 2.7 nM. For the compound `CCOC(=O)c1ccc(-c2ccc(C[C@@H](C#N)NC(=O)[C@H]3N[C@@H]4CC[C@H]3C4)c(F)c2)s1` [Example 179], the IC50 was determined as 7.5 nM. The result for `N#C[C@H](Cc1ccc(OCc2ccccc2)cc1F)NC(=O)[C@H]1N[C@@H]2CC[C@H]1C2` [Example 290] reads 20.6 nM; that for `CC(C)OCc1cn(-c2ccc(C[C@@H](C#N)NC(=O)[C@H]3N[C@@H]4CC[C@H]3C4)c(F)c2)nn1` [Example 124], 187 nM; that for `Cn1c(=O)c2cc(CC(C#N)NC(=O)[C@H]3N[C@@H]4CC[C@H]3C4)ccc2c2ccccc21` (some centres unmarked) [Example 206], 26.3 nM. The result for `CN1CCCN(S(=O)(=O)c2ccc(-c3ccc(C[C@@H](C#N)NC(=O)[C@H]4N[C@@H]5CC[C@H]4C5)c(F)c3)cc2)CC1` [Example 340] reads 1.8 nM; that for `N#C[C@H](Cc1ccc(-c2cnc(C3CC3)s2)cc1F)NC(=O)[C@H]1N[C@@H]2CC[C@H]1C2` [Example 173], 5.5 nM.

Consider `Cn1cc2ccc(-c3ccc(C[C@@H](C#N)NC(=O)[C@H]4N[C@H]5C[C@@H]4[C@@H]4C[C@@H]45)c(F)c3)cc2n1` [Example 135], for which the IC50 came out at 286 nM. The result for `N#C[C@H](Cc1ccc(-c2ccc3c(c2)CC(=O)N3C2CCNCC2)cc1F)NC(=O)[C@H]1N[C@@H]2CC[C@H]1C2` [Example 334] reads 22 nM.

In the case of `CS(=O)(=Nc1cccc(-c2ccc(C[C@@H](C#N)NC(=O)[C@H]3N[C@@H]4CC[C@H]3C4)c(F)c2)c1)C1CCOCC1` (some centres unmarked) [Example 264], the IC50 amounted to 17 nM. For `CN1Cc2ccc(-c3ccc(C[C@@H](C#N)NC(=O)[C@H]4N[C@@H]5CC[C@H]4C5)c(F)c3)cc2C1` [Example 1, (1S,2S,4R)—N-[(1S)-1-cyano-2-[2-fluoro-4-(2-methylisoindolin-5-yl)phenyl]ethyl]-3-azabicyclo[2.2.1]heptane-2-carboxamide], the IC50 came out at 8.6 nM. Consider `CN(C)CCN1C(=O)Cc2cc(-c3ccc(C[C@@H](C#N)NC(=O)[C@H]4N[C@@H]5CC[C@H]4C5)c(F)c3)ccc21` [Example 279], for which the concentration for half-maximal inhibition (IC50) is 5.5 nM. In the case of `N#C[C@H](Cc1ccc(-c2ccc(S(=O)(=O)N3CCOCC3)cc2)cc1F)NC(=O)[C@H]1N[C@@H]2CC[C@H]1C2` [Example 217], the IC50 came out at 3.7 nM. The result for `CN1CCN(S(=O)(=O)c2cc(-c3ccc(C[C@@H](C#N)NC(=O)[C@H]4N[C@@H]5CC[C@H]4C5)c(F)c3)ccc2F)CC1` [Example 339] reads 1.3 nM; that for `Cn1c(=O)oc2ccc(-c3ccc(C[C@@H](C#N)NC(=O)[C@H]4N[C@H]5C[C@@H]4[C@@H]4C[C@@H]45)c(F)c3)cc21` [Example 129], 82.7 nM. Consider `N#C[C@H](Cc1ccc(-c2csc(C(=O)N3CCn4nccc4C3)c2)cc1F)NC(=O)[C@H]1N[C@@H]2CC[C@H]1C2` [Example 226], for which the IC50 stood at 0.9 nM. The result for `C[S+]([O-])c1cc(=O)n(-c2ccc(C[C@@H](C#N)NC(=O)[C@H]3N[C@@H]4CC[C@H]3C4)c(F)c2)cc1F` (some centres unmarked) [Example 265] reads 62.7 nM; that for `N#C[C@H](Cc1ccc(-c2cc[nH]c(=O)c2)cc1F)NC(=O)[C@H]1N[C@@H]2CC[C@H]1C2` [Example 257], 39.9 nM. The same measure for `N#C[C@H](Cc1ccc(N2CCCCC2)cc1F)NC(=O)[C@H]1N[C@@H]2CC[C@H]1C2` [Example 197]: 15.6 nM; for `N#CC(Cc1ccc2c(c1)[nH]c(=O)c1ccccc12)NC(=O)[C@H]1N[C@@H]2CC[C@H]1C2` (stereo partly drawn) [Example 123, (1S,2S,4R)—N-[1-cyano-2-(6-oxo-5H-phenanthridin-3-yl)ethyl]-3-azabicyclo[2.2.1]heptane-2-carboxamide]: 187 nM. As for `CN1CC2CCN(c3ccc(C[C@@H](C#N)NC(=O)[C@H]4N[C@@H]5CC[C@H]4C5)c(F)c3)C2C1` (some centres unmarked) [Example 353], the IC50 is 6.5 nM.

For `CS(=O)(=O)c1cc(-c2ccc(C[C@@H](C#N)NC(=O)[C@H]3N[C@H]4CC[C@@H]3C4)c(F)c2)ccc1C#N` [Example 214], the IC50 came out at 815 nM.
